Source: a melting point compilation (Tetko et al.; mined from patent text by program, amines drawn as free bases though some values may be those of a salt)

melting point [°C] | Compound
> 200 | CCC(=O)Nc1ccccc1-c1nc2ccccc2[nH]1
140 to 142 | COc1ccc(C(Cl)=C(C#N)c2ccc(OC)cc2)cc1
211 to 212 | CCS(=O)(=O)NCCCCn1c(C)nc2c(N)nc3ccccc3c21
126 to 127 | Cc1c(C(=O)Nc2ccc(OCC(C)(C)C)c(C#N)c2)cnn1-c1ccc(F)cc1
224 | Cc1cc(-c2ccc(Cl)cc2)nc(-c2ccnc(-c3cccc(S(N)(=O)=O)c3)c2)n1
220 | COc1nc2ccccc2c(=O)n1O
230 | [N-]=[N+]=Nc1ccc(-c2ccc(-c3nc(N)nc(N)n3)cc2)cc1
92 | CCOc1ccc2ccccc2c1-c1c(OCC)ccc2ccccc12
107 to 110 | CC(N)=C(C(=O)OC(C)(C)C)C(=S)NC(=O)c1ccccc1
203 to 205 | C#CCOc1ccc2c(C)cc(=O)oc2c1C(=O)C=Cc1cccnc1
132 to 134 | COc1cc(OC)nc(NC(=O)NS(=O)(=O)Oc2ccccc2OCCCl)n1
215 | NC(Cc1nc2cc3ccccc3cc2nc1CP(=O)(O)O)C(=O)OCc1ccccc1 (stereo unspecified)
105 to 106 | CCOC(=O)c1c(O)c2ccc(Br)cc2c(=O)n1CC1CC1
220 to 223 | O=C(O)C(=O)Nc1cc(-c2ccc(-c3cccc4c3oc3ccccc34)cc2)cn(Cc2ccccc2)c1=O
123 to 132 | CC(C)(C)NC(=O)[C@@H]1CCCN1C(=O)[C@@H](O)[C@H](Cc1ccccc1)NC(=O)[C@H](CC(N)=O)NC(=O)COc1ccc(NC(=O)CNCCN2CCOCC2)cc1
72 | COc1cc(C)c(C(=O)c2c(OC)ccc3ccccc23)c(OC)c1OC
152 to 153 | CCCCOc1c(N(C)C(=O)OC(C)(C)C)n(CC(C)C)c(=O)c2ccc(-c3cnco3)cc12
167 to 169 | CC(C)(C)c1cc(NC(=S)NCc2ccc(N)cc2)cc(C(C)(C)C)c1O
> 290 | CN1C(=O)C(c2cn(C)c3ccccc23)=C(c2cn(C)c3ccccc23)C1=O
242 to 245 | Cc1c(C)c2ccc(OCCCN3CCC(NC(=O)c4ccc(N)cc4)CC3)cc2oc1=O
208 to 209 | Cc1nc(-c2ccccc2)nc(-c2cccc([N+](=O)[O-])c2)c1C(=O)O
145 to 150 | CC(=O)N1CCC(Oc2ccc([N+](=O)[O-])cc2)(c2ccccc2)CC1
150 to 151 | C[C@H](NC(=O)C[C@H](O)CC(=O)/C=C/c1c(C2CC2)nc2ccccc2c1-c1ccc(F)cc1)c1ccccc1
92 to 94 | CC(C)(C)[Si](C)(C)OC1=Cc2ccccc2C1[Si](C)(C)C1C(O[Si](C)(C)C(C)(C)C)=Cc2ccccc21 (stereo unspecified)
198 to 199 | COCCOc1cc(N(C)S(=O)(=O)c2cccs2)c2[nH]c(C(=O)O)cc2c1
86 to 100 | O=C(NCc1ccc2c(Br)c(OC(Cc3ccccc3)C(=O)O)ccc2c1)c1ccc(Oc2cc(Cl)cc(Cl)c2)o1 (stereo unspecified)
154 to 155 | CC(C)c1cccc(C(C)C)c1NC(=O)CNC(c1ccccc1)c1ccc(Br)cc1 (stereo unspecified)

melting point [°C] | Compound
115 to 116 | O=C1c2cc(Oc3ccc(F)cc3)ccc2CN1Cc1cccnc1
209 to 213 | Cc1sc2c(c1C(=O)c1ccc(S(C)=O)cc1)CCC2C(=O)O (stereo unspecified)
129 to 131 | N#CC(c1ccccc1)(c1ccccc1)[C@H]1CCCN(CCc2ccc(Cl)cc2)C1
146 to 149 | Cc1cccc(C)c1NNC(=O)c1cccc2c1CC(N(C(=O)C(F)(F)F)C1CC1)CO2 (stereo unspecified)
265 to 268 | Cc1cc(-c2ccc(F)cc2)nc(O)n1
110 to 113 | CC(=O)Oc1cccc2sc(-c3ccc(C)cc3)nc12
221 to 226 | O=C(NC1CC1)c1ccccc1C(c1ccc(O)cc1)c1ccc(O)cc1
191 to 192 | O=c1c(CCCc2ccncc2)cc2cccnc2n1-c1cccc2nsnc12
127 to 128 | COCCSc1ccccc1S(=O)(=O)NC(=O)Nc1nc(C)nc(OC)n1
179 to 180 | O=C(Nc1c(C(O)(C(F)(F)F)C(F)(F)F)ccc2ccccc12)c1ccc(OC(F)(F)F)cc1
99 to 101 | O=C1C=CC(Cl)(C(=O)OC(c2ccccc2)c2ccccc2)O1 (stereo unspecified)
136 to 138 | O=C(O)C(CCC1=CCCCC1)Oc1ccc(-c2ccc(Cl)s2)cc1 (stereo unspecified)
130 to 131 | CCCOc1ccccc1-c1nc2n(C(C)(C)C)[nH]cc-2c(=O)n1
123 to 126 | CCOC(=O)N1CCN(c2nn(-c3ccc(C(F)(F)F)cc3)c3ccccc23)CC1
143 to 147 | Cc1c(SCCCSc2ccc3ncc([N+](=O)[O-])n3n2)ccnc1CSc1ncccn1
160 to 163 | COc1ccc(CNc2nc(N3CCC[C@H]3CO)ncc2C(=O)NCc2ncccn2)cc1Cl
104 to 105 | C#CCN1C(=O)c2cccc3c2N(CC3)c2ccccc21
136 | CCOC(=O)C(C(=O)CCC(C)C)C1c2nccnc2C(=O)N1c1ccc2ccc(Cl)nc2n1 (stereo unspecified)
59 to 63 | CC(C)(C)OC(=O)[C@@H]1CCC(=O)N1Cc1ccccc1
137 | Nc1ccc(NC(=O)[C@H](Cc2ccccc2)NC(=O)c2ccc(-c3nnn[nH]3)cc2)cc1
158 to 160 | COC(=O)C(O)=CC(=O)c1cn(Cc2ccccc2F)c(=O)n(Cc2ccccc2F)c1=O
166 to 169 | Cc1[nH]c2ccc(F)cc2c1C(=O)NC1CCN(Cc2ccccc2)CC1
68 to 70 | C=CCCOc1ccc(C[C@H](NC(=O)OC(C)(C)C)C(=O)N[C@@H](CC(C)C)C(=O)O)cc1
127 to 128 | CC1(C)CCC(C)(C)c2cc(C(F)C(=O)O)ccc21 (stereo unspecified)
211 to 212 | CCOC(=O)C1=C(C)NC2=C(C(=O)OC2)C1c1ccccc1Cl (stereo unspecified)
124 to 125 | Cc1ccc(N(Cc2ccc(N(C)C)cc2)C(=O)Nc2c(C(C)C)cccc2C(C)C)cc1
126 to 128 | CCON=C(CC)C1=C(O)CC(c2ccc(Sc3ccc(S(C)(=O)=O)cn3)cc2)CC1=O (stereo unspecified)

The remaining lines, values behind:

Compound | melting point [°C]
CCc1nc2ccc(S(C)(=O)=O)nn2c1S(N)(=O)=O | 225 to 226
O=C(NCCCCCCCCn1ccnc1)c1ccc(Cl)s1 | 95 to 97
COc1ccc2c(c1)C1CCN(C)C(C1)N2C (stereo unspecified) | 72 to 73.5
CCOc1ccc(N)nc1C | 93 to 96
Cc1noc([C@H]2CC[C@@](C)(NCC(=O)N3C[C@@H](F)C[C@H]3C#N)C2(C)C)n1 | 147 to 151
CC(O)C#Cc1ncn2c1CN(C)C(=O)c1ccccc1-2 (stereo unspecified) | 161 to 162
CNS(=O)(=O)Cc1ccc(NC(=N)c2ccc3[nH]cc(CCN)c3c2)cc1 | 63 to 65
CCOC(=O)C1=C(C)Nc2nc(N3CCOCC3)nc(N3CCOCC3)c2C1c1cccnc1 (stereo unspecified) | 229
CCCNC(=O)C(C#N)=C(SC)SC | 65 to 66
Cc1ccc(C)c(OCCC(O)C(C)(C)C(=O)O)c1 (stereo unspecified) | 100
Cc1nc2cccc(N)c2nc1C | 162 to 163
O=C1c2ccccc2C(=O)N1CC=CCn1ccnc1 | 106 to 108
COc1cc([N+](=O)[O-])cc(OC(F)F)c1OC | 72 to 73
CCS(=O)c1c(C#N)nn(-c2c(Cl)cc(C(F)(F)F)cc2Cl)c1NC (stereo unspecified) | 142
CN1Cc2c(C#N)ncn2-c2ccc(F)cc2C1=O | 236 to 237
Clc1cncc(Oc2cccc(Cl)n2)c1 | 46 to 47
FC(F)(F)c1cc(Cl)c(-n2cc(C3CC3(Br)Br)c(C=C(Br)Br)n2)c(Cl)c1 (stereo unspecified) | 106 to 107
FC(F)(F)c1nnc2c3cc4c(cc3ccn12)OCO4 | 187 to 189
CCOC(=O)COc1ccc2c(c1)C(=O)CCC2 | 84 to 86
CCn1c(Br)c(Br)c(C#N)c1Br | 108 to 110
CC(C)(C)C(=O)COc1ccc(Cl)cc1Cl | 65
COc1ccc(N)c(C(=O)CS(=O)(=O)N(C)C)c1 | 198 to 200
CCSc1ccc2c(c1)NC(=O)C2 | 125 to 126
CC(C)(c1cc(Cl)cc([N+](=O)[O-])c1O)c1cc(Cl)cc([N+](=O)[O-])c1O | 188

Compound | melting point [°C]
CCCCCNC(=O)n1nc(Oc2ncc(C(F)(F)F)cc2Cl)cc1C | 142 to 144
CC(Cn1ncnn1)n1nnc2cc3c(=O)n(C4CCC4)nnc3cc2c1=O (stereo unspecified) | 152 to 154
COC(=O)CCC(C)C(=O)O (stereo unspecified) | 97 to 99
O=C(O)CCSCCCCCCCCCCCCF | 59
CC1=NCC2CNC(c3ccccc3F)c3cc(Cl)ccc3N12 (stereo unspecified) | 108 to 110
CCC(Oc1ccc(C(C)(C)CC)cc1C(C)(C)CC)C(=O)O (stereo unspecified) | 89
COc1cc(OC)c([N+](=O)[O-])cc1[N+](=O)[O-] | 153 to 155
CCCCC1=C(C=Cc2ccc(N(CCCC)CCCC)cc2OC)CC(C)(C)CC1=CC=CC1=C(C#N)C(=C(C#N)C#N)OC1(c1ccccc1)C(F)(F)F (stereo unspecified) | 109 to 113
Cc1ccnc(F)c1N | 63 to 64
Cc1oc2c(Br)cc(C=O)cc2c1C | 126
Cn1c(=O)c(=O)[nH]c2cc(C(F)(F)F)ccc21 | 255
N#Cc1nc2c(nc1N)CCCC2 | 200 to 202
CCOc1ccc(C(=O)CCC(=O)OC)cc1OCC | 84 to 85
NS(=O)(=O)OCCOc1cccc(O)c1 | 56 to 60
CC(=O)c1c(C)[nH]c(C)c1C | 204 to 207
COc1cc(NC(=S)NC2CCCCC2)ccc1NNC=O | 131 to 133
COc1c(Br)ccc2ccc(Cl)nc12 | 130 to 132
Cc1[nH]c(C(=O)O)c(C)c1C=O | 233 to 237
COc1ccc2cc([C@H](C)C(=O)OCC(CO[N+](=O)[O-])(CO[N+](=O)[O-])[N+](=O)[O-])ccc2c1 | 69 to 71
NS(=O)(=O)OCCCCCOS(N)(=O)=O | 96.5 to 99
OC[C@H]1OC[C@@H](n2cnc3cc(Cl)c(Cl)cc32)C[C@@H]1O | 197
CC1CCCC(C)N1CCNC(=O)CN1CC(c2ccccc2)CC1=O (stereo unspecified) | 115 to 116
CC(C)(C)c1ccc2c(c1)OC(C(F)(F)C(F)(F)F)C(C(=O)O)=C2 (stereo unspecified) | 171 to 174
